Experimental data taken from patent US20250171423A1, “PHARMACEUTICAL COMPOUNDS FOR THE TREATMENT OF COMPLEMENT MEDIATED DISORDERS” (Achillion Pharmaceuticals, Inc., priority 2020, published 2025).
Where a name gives a salt, the structure may show the parent alone.

What follows are compounds tested against T1, Human complement C1s enzyme (Homo sapiens, UniProt P09871) (assay: Human C1s Enzyme Assay). Details: human C1s 1.16 nM, 5 min preincubation, substrate Z-L-Lys-SBzl 100 μM, A405; read-out: C1s Protease Activity.
T1 construct: purified from human serum, Complement Technology, Inc; purchased Complement Technology, Inc; host or cells: human serum
T1 sequence (P09871 438-688 limits assumed): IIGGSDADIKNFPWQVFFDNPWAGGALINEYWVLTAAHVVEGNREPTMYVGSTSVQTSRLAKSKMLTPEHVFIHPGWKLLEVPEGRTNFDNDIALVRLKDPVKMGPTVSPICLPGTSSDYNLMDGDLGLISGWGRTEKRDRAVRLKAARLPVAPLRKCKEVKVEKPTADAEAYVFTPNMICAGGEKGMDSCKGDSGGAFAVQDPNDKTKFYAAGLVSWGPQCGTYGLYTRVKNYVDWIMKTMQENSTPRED
T1 sequence (P09871 16-437 partner limits assumed): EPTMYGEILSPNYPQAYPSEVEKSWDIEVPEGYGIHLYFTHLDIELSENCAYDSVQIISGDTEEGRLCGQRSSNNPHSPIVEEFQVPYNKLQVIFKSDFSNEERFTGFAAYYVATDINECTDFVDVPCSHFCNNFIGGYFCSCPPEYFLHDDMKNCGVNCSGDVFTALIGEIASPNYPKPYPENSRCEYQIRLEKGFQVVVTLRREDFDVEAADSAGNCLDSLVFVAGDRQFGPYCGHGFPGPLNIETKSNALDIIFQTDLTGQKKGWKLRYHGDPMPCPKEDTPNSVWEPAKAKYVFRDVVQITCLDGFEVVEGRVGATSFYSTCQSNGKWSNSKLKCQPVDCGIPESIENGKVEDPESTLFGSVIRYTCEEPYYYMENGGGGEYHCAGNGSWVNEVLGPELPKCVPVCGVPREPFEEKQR
Type: biochemical
Protocol: The assay of Example 3 was used to determine the IC50's of the compounds. Other standard complement assays are also available.
Example 3. Human C1s Enzyme Assay
Human complement C1s enzyme (purified from human serum, Complement Technology, Inc.) at 1.16 nM final concentration was incubated with test compound at various concentrations for 5 min at room temperature in 50 mM Tris, 1 M NaCl, pH 7.5. A synthetic substrate Z-L-Lys-SBzl and DTNB (Ellman's reagent) were added to final concentrations of 100 μM each. Absorbance at 405 nm (A405) was recorded at 30 second intervals for 30 min using a microplate spectrophotometer. IC50 values were calculated by nonlinear regression of complement C1s reaction rates as a function of test compound concentration.

| SMILES | IC50 [nM] |
| --- | --- |
| CC(C)C[C@@H](NC(=O)[C@@H]1CC2(CN1C(=O)CNC(=O)CCCOc1ccccc1)OCCO2)c1cc(C(=N)N)cs1 [Compound 173, (S)-N-((R)-1-(4-carbamimidoylthiophen-2-yl)-3-methylbutyl)-7-((4-phenoxybutanoyl)glycyl)-1,4-dioxa-7-azaspiro[4.4]nonane-8-carboxamide] | > 1000 |
| CC(C)[C@@H](NC(=O)[C@@H]1CC2(CN1C(=O)CNC(=O)CCCOc1ccccc1)OCCO2)c1cc(C(=N)N)cs1 [Compound 167, (S)-N-((R)-1-(4-carbamimidoylthiophen-2-yl)-2-methylpropyl)-7-((4-phenoxybutanoyl)glycyl)-1,4-dioxa-7-azaspiro[4.4]nonane-8-carboxamide] | > 1000 |
| C[C@@]12C[C@@H]1N(C(=O)CNC(=O)CCCOc1cccc(C(=O)O)c1)[C@H](C(=O)NCc1cc(C(=N)N)cs1)C2 [Compound 165, 3-(4-((2-((1S,3S,5S)-3-(((4-carbamimidoylthiophen-2-yl)methyl)carbamoyl)-5-methyl-2-azabicyclo[3.1.0]hexan-2-yl)-2-oxoethyl)amino)-4-oxobutoxy)benzoic acid] | < 100 |
| C[C@@]12C[C@@H]1N(C(=O)CNC(=O)c1ccc(Oc3ccccc3)cc1)[C@H](C(=O)N1CCc3c(C(=N)N)csc3C1)C2 [Compound 112, N-(2-((1S,3S,5S)-3-(3-carbamimidoyl-4,5,6,7-tetrahydrothieno[2,3-c]pyridine-6-carbonyl)-5-methyl-2-azabicyclo[3.1.0]hexan-2-yl)-2-oxoethyl)-4-phenoxybenzamide] | 100 to 1000 |
| C[C@@]12C[C@@H]1N(C(=O)CNC(=O)c1ccc(Oc3ccccc3)cc1)[C@H](C(=O)NCc1nnc(C(=N)N)o1)C2 [Compound 201, (1S,3S,5S)-N-((5-carbamimidoyl-1,3,4-oxadiazol-2-yl)methyl)-5-methyl-2-((4-phenoxybenzoyl)glycyl)-2-azabicyclo[3.1.0]hexane-3-carboxamide] | > 1000 |
| C[C@@]12C[C@@H]1N(C(=O)CNC(=O)c1ccc(Oc3ccccc3)cc1)[C@H](C(=O)NCc1ccc(C(=N)N)cn1)C2 [Compound 4] | 100 to 1000 |
| COCCCC(=O)NCC(=O)N1[C@H]2C[C@@]2(C)C[C@H]1C(=O)NCc1cc(C(=N)N)cs1 [Compound 75, (1S,3S,5S)-N-((4-carbamimidoylthiophen-2-yl)methyl)-2-((4-methoxybutanoyl)-glycyl)-5-methyl-2-azabicyclo[3.1.0]hexane-3-carboxamide] | 100 to 1000 |
| C[C@@H](NC(=O)[C@@H]1C[C@@H](Oc2ccccc2)CN1C(=O)CNC(=O)CCCOc1ccccc1)c1cc(C(=N)N)cs1 [Compound 111, (2S,4R)-N-((R)-1-(4-carbamimidoylthiophen-2-yl)ethyl)-4-phenoxy-1-((4-phenoxy-butanoyl)glycyl)pyrrolidine-2-carboxamide] | < 100 |
| N=C(N)c1csc(CNC(=O)[C@@H]2C[C@@H](OC(F)F)CN2C(=O)CNC(=O)CCCOc2ccccc2)c1 [Compound 29, (2S,4R)-N-((4-carbamimidoylthiophen-2-yl)methyl)-4-(difluoromethoxy)-1-((4-phenoxybutanoyl)glycyl)pyrrolidine-2-carboxamide] | < 100 |
| C[C@@H](C(=O)NCc1cc(C(=N)N)cs1)N(C)C(=O)CNC(=O)c1ccc(Oc2ccccc2)cc1 [Compound 126, (S)-N-(2-((1-(((4-carbamimidoylthiophen-2-yl)methyl)amino)-1-oxopropan-2-yl)(methyl)amino)-2-oxoethyl)-4-phenoxybenzamide] | < 100 |
| C[C@@H](NC(=O)[C@@H]1C[C@@H](S(C)(=O)=O)CN1C(=O)CNC(=O)CCCOc1ccccc1)c1cc(C(=N)N)cs1 [Compound 125, (2S,4R)-N-((R)-1-(4-carbamimidoylthiophen-2-yl)ethyl)-4-(methylsulfonyl)-1-((4-phenoxybutanoyl)glycyl)pyrrolidine-2-carboxamide] | < 100 |
| C[C@@]12C[C@@H]1N(C(=O)CNC(=O)c1ccc(Oc3ccccc3)cc1)[C@H](C(=O)NCc1cc(/C(N)=N/S(N)(=O)=O)cs1)C2 [Compound 205, (1S,3S,5S)-5-methyl-2-((4-phenoxybenzoyl)glycyl)-N-((4-(N-sulfamoylcarbamimidoyl)thiophen-2-yl)methyl)-2-azabicyclo[3.1.0]hexane-3-carboxamide] | > 1000 |
| N=C(N)c1csc(CNC(=O)[C@@H]2CC3(CN2C(=O)CNC(=O)CCCOc2ccccc2)OCCO3)c1 [Compound 28, (S)-N-((4-carbamimidoylthiophen-2-yl)methyl)-7-((4-phenoxybutanoyl)glycyl)-1,4-dioxa-7-azaspiro[4.4]nonane-8-carboxamide] | < 100 |
| N=C(N)c1csc(C(NC(=O)[C@@H]2C[C@@H](OC(F)F)CN2C(=O)CNC(=O)c2ccc(Oc3ccccc3)cc2)C(=O)O)c1 (stereo partly drawn) [Compound 190, 2-(4-carbamimidoylthiophen-2-yl)-2-((2S,4R)-4-(difluoromethoxy)-1-((4-phenoxybenzoyl)glycyl)pyrrolidine-2-carboxamido)acetic acid] | < 100 |
| C/N=C(/NC)c1csc(CNC(=O)[C@@H]2C[C@]3(C)C[C@@H]3N2C(=O)CNC(=O)c2ccc(Oc3ccccc3)cc2)c1 [Compound 222, (1S,3S,5S)-N-((4-((E)-N,N′-dimethylcarbamimidoyl)thiophen-2-yl)methyl)-5-methyl-2-((4-phenoxybenzoyl)glycyl)-2-azabicyclo[3.1.0]hexane-3-carboxamide] | > 1000 |
| Cc1sc(CNC(=O)[C@@H]2C[C@]3(C)C[C@@H]3N2C(=O)CNC(=O)CCCOc2ccccc2)cc1C(=N)N [Compound 216, (1S,3S,5S)-N-((4-carbamimidoyl-5-methylthiophen-2-yl)methyl)-5-methyl-2-((4-phenoxybutanoyl)glycyl)-2-azabicyclo[3.1.0]hexane-3-carboxamide] | > 1000 |

Next, values leading:

| IC50 [nM] | SMILES |
| --- | --- |
| < 100 | C[C@@H](NC(=O)[C@@H]1CC2(CC2)CN1C(=O)CNC(=O)CCCOc1ccccc1)c1cc(C(=N)N)cs1 [Compound 116, (6S)-N-[(1R)-1-(4-carbamimidoylthiophen-2-yl)ethyl]-5-[2-(4-phenoxybutanamido)acetyl]-5-azaspiro[2.4]heptane-6-carboxamide] |
| < 100 | C[C@@H](NC(=O)[C@@H]1C[C@]2(C)C[C@@H]2N1C(=O)CNC(=O)CCCOc1ccccc1)c1cc(C(=N)N)cs1 [Compound 122, (1S,3S,5S)-N-((R)-1-(4-carbamimidoylthiophen-2-yl)ethyl)-5-methyl-2-((4-phenoxy-butanoyl)glycyl)-2-azabicyclo[3.1.0]hexane-3-carboxamide] |
| < 100 | C[C@@H](NC(=O)[C@@H]1CC2(CN1C(=O)CNC(=O)c1ccc(C(F)(F)F)cc1)OCCO2)c1cc(C(=N)N)cs1 [Compound 263, (S)-N-((R)-1-(4-carbamimidoylthiophen-2-yl)ethyl)-7-((4-(trifluoromethyl)benzoyl)glycyl)-1,4-dioxa-7-azaspiro[4.4]nonane-8-carboxamide] |
| < 100 | N=C(N)c1csc(CNC(=O)[C@@H]2C[C@H](C3CCCCC3)CN2C(=O)CNC(=O)c2ccc(Oc3ccccc3)cc2)c1 [Compound 73, (2S,4R)-N-((4-carbamimidoylthiophen-2-yl)methyl)-4-cyclohexyl-1-((4-phenoxy-benzoyl)glycyl)pyrrolidine-2-carboxamide] |
| < 100 | C[C@@H](NC(=O)[C@@H]1C[C@](F)(COCCCCCC(=O)O)CN1C(=O)CNC(=O)c1ccc(Oc2ccccc2)cc1)c1cc(C(=N)N)cs1 [Compound 199, 6-(((3R,5S)-5-(((R)-1-(4-carbamimidoylthiophen-2-yl)ethyl)carbamoyl)-3-fluoro-1-((4-phenoxybenzoyl)glycyl)pyrrolidin-3-yl)methoxy)hexanoic acid] |
| < 100 | COC[C@H]1C[C@@H](C(=O)NCc2cc(C(=N)N)cs2)N(C(=O)CNC(=O)c2ccc(Oc3ccccc3)cc2)C1 [Compound 14, (2S,4S)-N-((4-carbamimidoylthiophen-2-yl)methyl)-4-(methoxymethyl)-1-((4-phenoxybenzoyl)glycyl)pyrrolidine-2-carboxamide hydrochloride] |
| < 100 | CC(=O)NCc1cc(C(=O)NCC(=O)N2[C@H]3C[C@@]3(C)C[C@H]2C(=O)NCc2cc(C(=N)N)cs2)ccc1Oc1ccccc1 [Compound 10] |
| < 100 | N=C(N)c1csc(CNC(=O)[C@@H]2C[C@]3(CN2C(=O)CNC(=O)c2ccc(Oc4ccccc4)cc2)CC3(F)F)c1 [Compound 22, (3R,6S)-N-((4-carbamimidoylthiophen-2-yl)methyl)-1,1-difluoro-5-((4-phenoxy-benzoyl)glycyl)-5-azaspiro[2.4]heptane-6-carboxamide] |
